Legend:
USP12 = USP12 (Homo sapiens, UniProt O75317); test: Ubiquigent DUBprofiler biochemical panel, […] inhibition at […]
USP46 = USP46 (Homo sapiens, UniProt P62068); test: as above
USP46, sequence (P62068 whole entry): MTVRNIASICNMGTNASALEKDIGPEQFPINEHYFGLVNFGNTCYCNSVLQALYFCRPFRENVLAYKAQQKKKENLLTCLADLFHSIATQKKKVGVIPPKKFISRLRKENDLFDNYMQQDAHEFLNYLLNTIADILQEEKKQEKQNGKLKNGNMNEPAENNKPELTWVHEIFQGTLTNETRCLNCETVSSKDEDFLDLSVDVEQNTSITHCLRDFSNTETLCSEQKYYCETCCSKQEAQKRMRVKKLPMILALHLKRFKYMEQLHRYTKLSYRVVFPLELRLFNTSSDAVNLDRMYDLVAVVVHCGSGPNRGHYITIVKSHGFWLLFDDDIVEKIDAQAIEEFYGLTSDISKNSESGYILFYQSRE
USP46, sequence (Q8TAF3 whole entry partner): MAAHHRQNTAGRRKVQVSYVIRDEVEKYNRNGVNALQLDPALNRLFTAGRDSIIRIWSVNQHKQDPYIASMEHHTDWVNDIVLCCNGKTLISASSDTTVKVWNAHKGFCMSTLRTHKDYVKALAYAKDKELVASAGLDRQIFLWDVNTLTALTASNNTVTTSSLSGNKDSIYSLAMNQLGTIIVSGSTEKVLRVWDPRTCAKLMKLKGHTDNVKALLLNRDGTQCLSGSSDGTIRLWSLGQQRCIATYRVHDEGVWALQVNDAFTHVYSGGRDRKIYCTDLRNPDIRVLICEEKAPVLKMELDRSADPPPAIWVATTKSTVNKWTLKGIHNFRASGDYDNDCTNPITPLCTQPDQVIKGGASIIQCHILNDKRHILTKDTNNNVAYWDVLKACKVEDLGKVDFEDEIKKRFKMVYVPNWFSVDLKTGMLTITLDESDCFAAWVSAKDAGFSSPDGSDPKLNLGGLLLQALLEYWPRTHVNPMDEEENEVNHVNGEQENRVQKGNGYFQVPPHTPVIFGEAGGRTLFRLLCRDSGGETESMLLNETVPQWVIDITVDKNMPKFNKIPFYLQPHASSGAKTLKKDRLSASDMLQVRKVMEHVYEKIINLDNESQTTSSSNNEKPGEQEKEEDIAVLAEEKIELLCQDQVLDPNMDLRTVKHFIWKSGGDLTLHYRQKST

USP12, sequence (O75317 whole entry): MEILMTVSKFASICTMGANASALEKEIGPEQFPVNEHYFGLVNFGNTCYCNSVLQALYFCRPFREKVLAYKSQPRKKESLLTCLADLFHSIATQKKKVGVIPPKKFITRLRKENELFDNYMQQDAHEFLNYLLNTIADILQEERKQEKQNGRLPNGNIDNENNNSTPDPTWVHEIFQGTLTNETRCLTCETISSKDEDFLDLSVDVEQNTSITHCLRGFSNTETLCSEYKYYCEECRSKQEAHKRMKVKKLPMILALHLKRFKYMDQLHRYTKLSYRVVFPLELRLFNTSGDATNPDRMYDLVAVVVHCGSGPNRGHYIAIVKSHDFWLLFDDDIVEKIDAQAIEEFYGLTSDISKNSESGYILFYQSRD
USP12, sequence (Q8TAF3 whole entry partner): as the sequence (Q8TAF3 whole entry partner) above

IC50 (USP12): ~ 10 μmol/L | IC50 (USP46): ~ 10 μmol/L
SMILES: CC(C)c1ccccc1-c1ncc2[nH]c(=O)n(Cc3ccc(-c4nc(C(F)(F)F)cn4C)cc3)c2n1 [I-138, 2-(2-isopropylphenyl)-9-(4-(1-methyl-4-(trifluoromethyl)-1H-imidazol-2-yl)benzyl)-7,9-dihydro-8H-purin-8-one]

— PMC9891357 (Molecular Cancer Therapeutics, 2022)
